Reference: patent publication US12668845B2, “Methods for predicting drug responsiveness in cancer patients” (Allarity Therapeutics Europe ApS, priority 2018, dated 2026)

Key:
NCEB-1 = assay: Growth inhibition of cell lines treated with 2X-121; format: cell-based; settings: NCEB1; cell line NCEB-1, origin MCL; read-out: Measured growth inhibition IC50
SNG-II = assay: as above; format: cell-based; settings: cell line SNG-II, origin Endometrial; read-out: Measured growth inhibition IC50
Hs578T = assay: as above; format: cell-based; settings: Homo sapiens, Hs-578T; cell line Hs578T, origin Breast; read-out: Measured growth inhibition IC50
SF-295 = assay: as above; format: cell-based; settings: Homo sapiens; cell line SF-295, origin GBM; read-out: Measured growth inhibition IC50
SNG-M = assay: as above; format: cell-based; settings: cell line SNG-M, origin Endometrial; read-out: Measured growth inhibition IC50
KG-1 = assay: as above; format: cell-based; settings: Homo sapiens; cell line KG-1, origin AML; read-out: Measured growth inhibition IC50
U266 = assay: as above; format: cell-based; settings: Homo sapiens, U-266; cell line U266, origin Myeloma; read-out: Measured growth inhibition IC50
Pfeiffer = assay: as above; format: cell-based; settings: Homo sapiens; cell line Pfeiffer, origin DLBCL (GC); read-out: Measured growth inhibition IC50
DU145 = assay: as above; format: cell-based; settings: Homo sapiens, DU-145; cell line DU145, origin Prostate; read-out: Measured growth inhibition IC50
MFE-280 = assay: as above; format: cell-based; settings: Homo sapiens; cell line MFE-280, origin Endometrial; read-out: Measured growth inhibition IC50
P-glycoprotein = P-glycoprotein (Homo sapiens, UniProt P08183); settings: cited from earlier work
SNU-182 = assay: Growth inhibition of cell lines treated with 2X-121; format: cell-based; settings: Homo sapiens; cell line SNU-182, origin HCC; read-out: Measured growth inhibition IC50
U937 = assay: as above; format: cell-based; settings: Homo sapiens, U-937; cell line U937, origin Histiocytic lymphoma-monocytic; read-out: Measured growth inhibition IC50
HEC-108 = assay: as above; format: cell-based; settings: cell line HEC-108, origin Endometrial; read-out: Measured growth inhibition IC50
NCI-H1694 = assay: as above; format: cell-based; settings: Homo sapiens; cell line NCI-H1694, origin SCLC; read-out: Measured growth inhibition IC50
HEC-251 = assay: as above; format: cell-based; settings: cell line HEC-251, origin Endometrial; read-out: Measured growth inhibition IC50
HEC-50B = assay: as above; format: cell-based; settings: cell line HEC-50B, origin Endometrial; read-out: Measured growth inhibition IC50
RPMI-8226 = assay: as above; format: cell-based; settings: Homo sapiens; cell line RPMI-8226, origin Myeloma; read-out: Measured growth inhibition IC50
HEC-59 = assay: as above; format: cell-based; settings: cell line HEC-59, origin Endometrial; read-out: Measured growth inhibition IC50
THP-1 = assay: as above; format: cell-based; settings: Homo sapiens; cell line THP-1, origin AML; read-out: Measured growth inhibition IC50
Toledo = assay: as above; format: cell-based; settings: Homo sapiens; cell line Toledo, origin DLBCL (GC); read-out: Measured growth inhibition IC50
BT-20 = assay: as above; format: cell-based; settings: Homo sapiens; cell line BT-20, origin Breast; read-out: Measured growth inhibition IC50
IM-9 = assay: as above; format: cell-based; settings: Homo sapiens; cell line IM-9, origin B lymphoblast; read-out: Measured growth inhibition IC50
HL-60 = assay: as above; format: cell-based; settings: Homo sapiens; cell line HL-60, origin Promyelocytic leukemia; read-out: Measured growth inhibition IC50
T47D = assay: as above; format: cell-based; settings: Homo sapiens; cell line T47D, origin Breast; read-out: Measured growth inhibition IC50
MCF-7 = assay: as above; format: cell-based; settings: Homo sapiens, MCF7; cell line MCF-7, origin Breast; read-out: Measured growth inhibition IC50
SR = assay: as above; format: cell-based; settings: Homo sapiens; cell line SR, origin B cell lymphoma; read-out: Measured growth inhibition IC50
Mino = assay: as above; format: cell-based; settings: Homo sapiens; cell line Mino, origin MCL; read-out: Measured growth inhibition IC50
MFE-296 = assay: as above; format: cell-based; settings: Homo sapiens; cell line MFE-296, origin Endometrial; read-out: Measured growth inhibition IC50
DB = assay: as above; format: cell-based; settings: Homo sapiens; cell line DB, origin DLBCL (GC); read-out: Measured growth inhibition IC50
NCI-H69 = assay: as above; format: cell-based; settings: Homo sapiens; cell line NCI-H69, origin SCLC; read-out: Measured growth inhibition IC50
NCI-H146 = assay: as above; format: cell-based; settings: Homo sapiens; cell line NCI-H146, origin SCLC; read-out: Measured growth inhibition IC50
HCT-116 = assay: as above; format: cell-based; settings: Homo sapiens; cell line HCT-116, origin Colon; read-out: Measured growth inhibition IC50
HEC-265 = assay: as above; format: cell-based; settings: cell line HEC-265, origin Endometrial; read-out: Measured growth inhibition IC50

Chain of P-glycoprotein (P08183 whole entry): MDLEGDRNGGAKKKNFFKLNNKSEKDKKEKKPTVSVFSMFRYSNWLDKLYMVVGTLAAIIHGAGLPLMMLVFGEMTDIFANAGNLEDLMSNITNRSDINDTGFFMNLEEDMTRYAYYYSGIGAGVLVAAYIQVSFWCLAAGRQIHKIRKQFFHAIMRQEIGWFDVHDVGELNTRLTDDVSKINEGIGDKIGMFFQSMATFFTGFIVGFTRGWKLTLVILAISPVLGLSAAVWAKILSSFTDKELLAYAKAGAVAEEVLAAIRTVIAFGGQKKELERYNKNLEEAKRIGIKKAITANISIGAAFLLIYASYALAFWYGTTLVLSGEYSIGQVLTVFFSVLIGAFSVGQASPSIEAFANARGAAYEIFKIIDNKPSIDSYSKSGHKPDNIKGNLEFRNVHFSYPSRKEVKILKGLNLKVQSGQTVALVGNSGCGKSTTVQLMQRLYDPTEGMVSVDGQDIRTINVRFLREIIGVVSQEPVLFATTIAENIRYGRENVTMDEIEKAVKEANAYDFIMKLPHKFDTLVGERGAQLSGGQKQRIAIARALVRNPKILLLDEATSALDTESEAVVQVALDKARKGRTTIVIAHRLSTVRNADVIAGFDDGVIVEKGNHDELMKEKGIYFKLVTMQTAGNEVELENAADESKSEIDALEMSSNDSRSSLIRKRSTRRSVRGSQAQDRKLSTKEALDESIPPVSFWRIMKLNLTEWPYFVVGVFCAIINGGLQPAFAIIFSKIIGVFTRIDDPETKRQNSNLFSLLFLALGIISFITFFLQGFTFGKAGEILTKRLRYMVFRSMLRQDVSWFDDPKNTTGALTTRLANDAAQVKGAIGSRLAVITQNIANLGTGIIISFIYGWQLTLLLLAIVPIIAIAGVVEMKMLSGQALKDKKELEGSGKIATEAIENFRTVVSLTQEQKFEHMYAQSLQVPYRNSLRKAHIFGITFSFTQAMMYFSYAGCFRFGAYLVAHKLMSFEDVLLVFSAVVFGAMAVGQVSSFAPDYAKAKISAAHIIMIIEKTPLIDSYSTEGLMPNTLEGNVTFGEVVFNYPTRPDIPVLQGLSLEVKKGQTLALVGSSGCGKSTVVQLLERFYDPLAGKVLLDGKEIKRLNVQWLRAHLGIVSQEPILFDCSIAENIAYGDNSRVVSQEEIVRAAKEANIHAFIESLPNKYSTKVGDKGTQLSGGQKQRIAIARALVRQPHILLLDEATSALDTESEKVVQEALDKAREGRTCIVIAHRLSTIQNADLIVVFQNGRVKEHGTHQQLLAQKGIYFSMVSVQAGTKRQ

O=c1[nH]nc2c3c(cccc13)N=C(CN1Cc3ccccc3C1)N2 [2X-121, 8-(isoindolin-2-ylmethyl)-2,9-dihydro-3H-pyridazino[3,4,5-de]quinazolin-3-one]
IC50 (NCEB-1): 5300 nM
IC50 (SNG-II): 5260 nM
IC50 (Hs578T): 9600 nM
IC50 (SF-295): 2600 nM
IC50 (SNG-M): 1360 nM
IC50 (KG-1): 2000 nM
IC50 (U266): 6700 nM
IC50 (Pfeiffer): 710 nM
IC50 (DU145): 1800 nM
IC50 (MFE-280): 770 nM
substrate for P-glycoprotein (P-glycoprotein): not a substrate for P-glycoprotein
IC50 (SNU-182): 5400 nM
IC50 (U937): 2700 nM
IC50 (HEC-108): 5970 nM
IC50 (NCI-H1694): 2470 nM
IC50 (HEC-251): 1260 nM
IC50 (HEC-50B): 3450 nM
IC50 (RPMI-8226): 9300 nM
IC50 (HEC-59): 2440 nM
IC50 (THP-1): 5400 nM
IC50 (Toledo): 1600 nM
IC50 (BT-20): 7900 nM
IC50 (IM-9): 2100 nM
IC50 (HL-60): 10300 nM
IC50 (T47D): 7800 nM
IC50 (MCF-7): 1900 nM
IC50 (SR): 260 nM
IC50 (Mino): 3400 nM
IC50 (MFE-296): 670 nM
IC50 (DB): 1600 nM
IC50 (NCI-H69): 1330 nM
IC50 (NCI-H146): 930 nM
IC50 (HCT-116): 1700 nM
IC50 (HEC-265): 2400 nM
